Here are results for three compounds from ChEMBL document CHEMBL5576042, “Fungal Depsidones Stimulate AKT-Dependent Glucose Uptake in 3T3-L1 Adipocytes” (J Nat Prod, 2024).

The test system of series [1] is 3T3-L1. The series is described as follows: Induction of glucose uptake in mouse 3T3-L1 cells assessed as increase in glucose uptake at 3.1 uM incubated for 16 hrs in presence of 2-[3H]-deoxyglucose by microbeta analysis. The format is functional.
In series [2] the test system is 3T3-L1. The series is described as follows: Induction of glucose uptake in mouse 3T3-L1 cells assessed as increase in glucose uptake at 2.3 uM incubated for 16 hrs in presence of 2-[3H]-deoxyglucose by microbeta analysis. It is filed as functional.
The target of series [3] is T1, Solute carrier family 2, facilitated glucose transporter member 4 (Mus musculus) (UniProt P14142).
T1 sequence (whole entry): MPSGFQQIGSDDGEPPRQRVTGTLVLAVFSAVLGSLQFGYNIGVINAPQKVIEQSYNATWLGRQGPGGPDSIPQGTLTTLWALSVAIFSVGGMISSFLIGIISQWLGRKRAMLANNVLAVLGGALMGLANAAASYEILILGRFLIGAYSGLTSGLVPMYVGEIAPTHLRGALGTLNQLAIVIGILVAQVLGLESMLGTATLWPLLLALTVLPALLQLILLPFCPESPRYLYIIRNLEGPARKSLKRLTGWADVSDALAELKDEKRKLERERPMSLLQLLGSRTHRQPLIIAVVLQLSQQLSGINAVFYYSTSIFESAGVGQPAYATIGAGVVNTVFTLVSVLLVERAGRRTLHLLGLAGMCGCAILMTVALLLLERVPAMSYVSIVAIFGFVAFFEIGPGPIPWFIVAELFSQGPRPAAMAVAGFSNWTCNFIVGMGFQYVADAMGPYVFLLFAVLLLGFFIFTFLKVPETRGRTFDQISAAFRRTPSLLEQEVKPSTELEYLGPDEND
The series is described as follows: Induction of GLUT4 translocation in mouse 3T3-L1 cells membrane by Western blot analysis. The format is cell membranes. In general terms: Immunoblotting shows a protein as a band on a membrane.

For series [4], the system named is 3T3-L1. Briefly: Cytotoxicity against mouse 3T3-L1 cells assessed as reduction in cell viability at 45 to 68 uM incubated for 18 hrs. As to conditions: 3t3-l1, 18 h, dose 45-68 µM. It is filed as toxicity, cell-based.
The test system of series [5] is 3T3-L1. The series is described as follows: Induction of glucose uptake in mouse 3T3-L1 cells assessed as increase in glucose uptake incubated for 16 hrs in presence 2-[3H]-deoxyglucose by microbeta analysis. The format is functional, cell-based. The following applies: dose 2.8-11 µM.
Series [6] concerns 3T3-L1. The series is described as follows: Induction of glucose uptake in mouse 3T3-L1 cells assessed as increase in glucose uptake at 11.27 uM in presence 2-[3H]-deoxyglucose by microbeta analysis. The format is functional, cell-based. The following applies: time 3-16 hrs, TDE = time-dependent effect.
Series [7] concerns 3T3-L1. The series is described as follows: Induction of glucose uptake in insulin-stimulated mouse 3T3-L1 cells assessed as increase in glucose uptake at 11 uM incubated for 16 hrs presence 2-[3H]-deoxyglucose by microbeta analysis. It is filed as functional.
For series [8], the system named is 3T3-L1. Briefly: Induction of glucose uptake in metformin-stimulated mouse 3T3-L1 cells assessed as increase in glucose uptake at 11 uM incubated for 16 hrs presence 2-[3H]-deoxyglucose by microbeta analysis. It is filed as functional.
Series [9] relates to 3T3-L1. The series is described as follows: Induction of glucose uptake in insulin-stimulated mouse 3T3-L1 cells assessed as increase in glucose uptake at 100 nM incubated for 16 hrs presence 2-[3H]-deoxyglucose by microbeta analysis. It is filed as functional, cell-based.
Series [10] has as its system 3T3-L1. The series is described as follows: Effect on GLUT4 mRNA expression in mouse 3T3-L1 cells at 11 uM incubated for 6 hrs by real time qPCR analysis. It is filed as functional, cell-based. In general terms: Quantitative PCR measures a nucleic acid by following its amplification.
The nature of series [11]: Effect on ACTbeta mRNA expression in mouse 3T3-L1 cells assessed as fold change at 11 uM incubated for 6 hrs by real time qPCR analysis. The format is functional.
Series [12] can be described thus: Effect on NONO mRNA expression in mouse 3T3-L1 cells assessed as fold change at 11 uM incubated for 6 hrs by real time qPCR analysis. The format is functional.
A short description of series [13]: Effect on GLUT4 protein level in mouse 3T3-L1 cells assessed as fold change at 11 uM incubated for 16 hrs. The format is functional.
Series [14] has as its system 3T3-L1. Briefly: Induction of AKT phosphorylation at ser473 residue in mouse 3T3-L1 cells measured up to 6 hrs by Western blot analysis. The following applies: filed as activator. The format is cell-based.
Series [15] has as its system 3T3-L1. The series is described as follows: Induction of AKT phosphorylation at ser473 residue in mouse 3T3-L1 cells assessed as fold change at 11 uM measured at 1 hr by Western blot analysis. It is filed as cell-based. As to conditions: filed as activator.
The test system of series [16] is 3T3-L1. Briefly: Induction of AKT phosphorylation at ser473 residue in mouse 3T3-L1 cells assessed as fold change at 11 uM measured at 6 hrs by Western blot analysis. It is filed as cell-based. As to conditions: filed as activator.
Series [17] is described as follows: Upregulation of AMPK expression in mouse 3T3-L1 cells assessed as fold change at 11 uM measured at 1 hr by Western blot analysis. It is filed as functional.
Series [18] is described as follows: Upregulation of AMPK expression in mouse 3T3-L1 cells assessed as fold change at 11 uM measured at 6 hrs by Western blot analysis. The format is functional.
Series [19] has as its system 3T3-L1. Briefly: Induction of glucose uptake in mouse 3T3-L1 cells assessed as increase in glucose uptake at 11 uM incubated for 16 hrs in presence of wortmannin. The format is functional, cell-based.
Series [20] deals with 3T3-L1. The series is described as follows: Induction of glucose uptake in mouse 3T3-L1 cells assessed as increase in glucose uptake at 11 uM incubated for 16 hrs in presence of 0.1 uM wortmannin. It is filed as functional, cell-based.
For series [21], the system named is 3T3-L1. The series is described as follows: Induction of glucose uptake in mouse 3T3-L1 cells assessed as increase in glucose uptake at 11 uM incubated for 16 hrs in presence of 0.1 uM dorsomorphin. It is filed as functional, cell-based.
The subject of series [22] is 3T3-L1. Briefly: Induction of glucose uptake in mouse 3T3-L1 cells assessed as increase in glucose uptake by measuring fold change at 11 uM incubated for 6 hrs in presence of 0.1 uM wortmannin. The format is functional.
Series [23] has as its system 3T3-L1. Briefly: Induction of glucose uptake in mouse 3T3-L1 cells assessed as increase in glucose uptake by measuring fold change at 11 uM incubated for 6 hrs in presence of 0.25 uM wortmannin. It is filed as functional.
For series [24], the system named is 3T3-L1. Briefly: Induction of glucose uptake in mouse 3T3-L1 cells assessed as increase in glucose uptake by measuring fold change at 11 uM incubated for 6 hrs in presence of 0.5 uM wortmannin. It is filed as functional.
Series [25] relates to 3T3-L1. Briefly: Induction of glucose uptake in mouse 3T3-L1 cells assessed as increase in glucose uptake at 11 uM incubated for 6 hrs in presence of 0.5 uM wortmannin. The format is functional.
Series [26] addresses T1, Solute carrier family 2, facilitated glucose transporter member 4 (Mus musculus). Briefly: Induction of GLUT4 translocation in mouse 3T3-L1 cells membrane assessed as fold increase in Na+/K+ ATPase level by Western blot analysis. The format is cell membranes.
Series [27] has as its target T2, Solute carrier family 2, facilitated glucose transporter member 1 (Mus musculus) (UniProt P17809).
T2 sequence (whole entry): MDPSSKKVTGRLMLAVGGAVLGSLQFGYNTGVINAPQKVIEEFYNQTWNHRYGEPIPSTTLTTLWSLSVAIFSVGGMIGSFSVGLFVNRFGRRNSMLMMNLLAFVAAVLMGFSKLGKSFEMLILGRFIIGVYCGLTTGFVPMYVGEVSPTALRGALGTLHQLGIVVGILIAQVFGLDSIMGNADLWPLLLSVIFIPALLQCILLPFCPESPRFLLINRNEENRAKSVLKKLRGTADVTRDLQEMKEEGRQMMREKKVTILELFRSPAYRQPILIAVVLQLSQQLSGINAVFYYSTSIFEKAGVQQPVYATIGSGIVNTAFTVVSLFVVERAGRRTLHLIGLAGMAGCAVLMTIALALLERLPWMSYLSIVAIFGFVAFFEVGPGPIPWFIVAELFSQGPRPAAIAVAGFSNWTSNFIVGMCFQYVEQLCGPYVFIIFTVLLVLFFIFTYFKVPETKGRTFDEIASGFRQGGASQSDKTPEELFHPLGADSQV
Briefly: Induction of GLUT1 translocation in mouse 3T3-L1 cells membrane assessed as fold increase in Na+/K+ ATPase level by Western blot analysis. It is filed as cell membranes.

The target in series [28] is T1, Solute carrier family 2, facilitated glucose transporter member 4 (Mus musculus). The series is described as follows: Induction of GLUT4 translocation in mouse 3T3-L1 cells Cytosol by Western blot analysis. The format is subcellular.
The target of series [29] is T2, Solute carrier family 2, facilitated glucose transporter member 1 (Mus musculus). The series is described as follows: Induction of GLUT1 translocation in mouse 3T3-L1 cells Cytosol by Western blot analysis. It is filed as subcellular.
The test system of series [30] is 3T3-L1. The series is described as follows: Induction of glucose uptake in insulin resistant-mouse 3T3-L1 cells assessed as fold increase in glucose uptake at 11 uM incubated for 16 hrs in presence of 2-[3H]-deoxyglucose. The format is functional.
Series [31] deals with 3T3-L1. Briefly: Induction of glucose uptake in insulin resistant-mouse 3T3-L1 cells assessed as fold increase in glucose uptake at 11 uM incubated for 16 hrs in presence of 2-[3H]-deoxyglucose and insulin. The format is functional.
Series [32] has as its system 3T3-L1. Briefly: Induction of AKT phosphorylation at ser473 residue in insulin-resistant mouse 3T3-L1 cells in presence of insulin. The following applies: filed as activator. It is filed as cell-based.
Series [33] has as its system 3T3-L1. The series is described as follows: Induction of AKT phosphorylation at ser473 residue in insulin-resistant mouse 3T3-L1 cells assessed as fold change in presence of insulin. It is filed as cell-based. The following applies: filed as activator.

Activity calls are given as the source filed them. The rule behind the calls is not given here.

On to `C/C=C(\C)c1cc(O)c(C)c2c1Oc1cc(O)cc(C)c1C(=O)O2`, for which, in series [1], the Activity came out at 124%.

`C/C=C(\C)c1c(Cl)c(O)c(C)c2c1Oc1c(Cl)c(O)c(Cl)c(C)c1C(=O)O2`: the Activity in series [2] amounted to 121%.

On to `C/C=C(\C)c1c(Cl)c(OC)c(C)c2c1Oc1c(Cl)c(O)c(Cl)c(C)c1C(=O)O2`, for which the outcome in series [3], in series [9], in [10], in series [14], in series [28] and in series [29] was Active. Besides, in [32], the result was Active. The Activity in series [2] is 141%; in [4], “Non-Toxic”; in [5], “Dose-Dependent Effect”; in [6] it was “Tde”; in series [7], 276%; in series [8] it was 252%. In series [25], the Activity is given as 20%. Further, the “fold change (FC)” value in series [11] came out at 1.92; in series [12] it was 2.07; in series [13], 1.67; in series [15], 2.4; in [16], 19; in series [17], 3.7. The “fold change (FC)” value in [18] was determined as 3.8; in [22], 1.5; in series [23], 1.4; in series [24], 1.2; in [26], 1.7; in [27], 1.6. The “fold change (FC)” value was 2.4 in [30], 2.7 in series [31] and 2.1 in series [33]. The outcome in [19], in [20] and in [21] was inactive.
